US6372209B1, “Vaginal lactobacillus medicant” (Gyne Logix, Inc., priority 1997, dated 2002)

Legend:
[1] = system: vaginal epithelial cells (VECs); assay: In vitro adherence to vaginal epithelial cells (frozen VECs, McIlvaine's buffer pH 4.5, Gram stain count); type: cell-based, human; conditions: for average adherence value: 8 VEC donors
Method: (1.2) Adherence to vaginal epithelial cells (VECs): Immediately after sampling, vaginal epithelial cells were transferred to MEM tissue culture medium, pH 7.2, washed 3 times in a syringe and passed through a 8μ filter (Millipore) which retains vaginal cells but passes bacteria. A total of 10^5 washed vaginal cells were added to a suspension of 10^9 Lactobacilli/ml (enumerated with a counting chamber) and incubated for 2.5 hours at 37° C. After washing and filtering to remove unattached Lactobacilli, the vaginal cells were stained using Gram stain. The number of Lactobacilli that adhered to the epithelial cells was counted and recorded using a light microscope equipped with a camera. Both the mean number of Lactobacilli cells adhered per VEC (average adherence value) and the percent VEC cohesion value, as described above, were calculated. The percent VEC cohesion value, defined as the percentage of VECs to which at least one Lactobacillus cell is adhered of the total number of VECs in an identified group, was used to determine whether a particular strain would be selected as having a desirable adherence characteristic. Since ongoing adherence studies required a constant supply of vaginal epithelial cells, the vaginal epithelial cells were pre-washed and stored at −70° C. until time of use.
Table 1 and Table 2 show the in vitro adherence studies using frozen VECs from donors representing the most prevalent ABO blood types. […] Strain CTV-05 (Lot LB-022) was preserved in suppository format as described in detail in Example 3. Suppositories were stored at both room (RT) and refrigerator (Ref.) temperatures for 5.5 months prior to testing. It is important to note that the cells of strain CTV-05 used in these studies were not in an actively growing metabolic state. Rather, a suppository containing CTV-05 was placed directly into McIlvaine's buffer (pH 4.5) without pregrowing the microbial cells to an active state. The cells were then directly added to VECs. Results are shown as (1) the logarithmic mean adherence of CTV-05 per 50 VECs (X ±1 standard deviation), (2) as the actual range of adhered CTV-05 per VEC in a total count of 50 VECs, and (3) as the percent VEC cohesion value (% VEC ADH). The description of terms in Table 1 is as follows: ^1X±STD=logarithmic mean adherence of LAB per 50 VEC, +1 standard deviation; ^2 Range=actual range of adhered LAB per VEC in a total count of 50 VECs; ^3% VEC ADH=percent of 50 VECs showing adherence of LAB strain CTV-05, Lot LB-022, stored for 5.5 months at refrigerated (Ref.) and/or room temperature (RT); and *Nursing Mother.
The buffer was then added directly to previously frozen VECs from human donors. Actively growing CTV-05 was also added to previously frozen VECs.

[2] = system: Candida albicans ATCC 14053 (human blood isolate); assay: Agar overlay zone of inhibition of yeast growth; type: cell-based
Method: (§1) MRS agar was allowed to harden at a 5 mm slant. Lactobacillus crispatus CTV-05 was streaked across the diameter of the plate and was grown for 24, 48 or 72 hours under both anaerobic and ambient atmospheres. Control strains of Lactobacillus jensenii CTV-01, Lactobacillus crispatus CTV-02, Lactobacillus crispatus CTV-03, and Lactobacillus crispatus CTV-04 were grown in the same way. The plates were overlayed with YM agar with 10 mM CNNaS (sodium thiocyanate, previously reported to be an inhibitor of yeast growth) or without CNNaS. The agar overlays were inoculated with one of two strains of Candida albicans ATCC 60193 (cervical isolate) or Candida albicans ATCC 14053 (human blood isolate). Zones of inhibition were measured. […] Therefore, Lactobacillus crispatus CTV-05 inhibits yeast growth in vitro.

[3] = system: Candida albicans ATCC 60193 (cervical isolate); assay: Agar overlay zone of inhibition of yeast growth; type: cell-based
Method: as §1

[4] = Active LAB, donor A+, cycle day 3, Gram stain score 4
[5] = Active LAB, donor A+, cycle day 17, Gram stain score 9
[6] = Active LAB, donor A+, cycle day 37, Gram stain score 8
[7] = Active LAB, donor AB+, cycle day 24, Gram stain score 4
[8] = Active LAB, donor A−, cycle day 8 mos., Gram stain score 4
[9] = Active LAB, donor B+, cycle day 13, Gram stain score 9
[10] = Active LAB, donor O+, cycle day 7, Gram stain score 2
[11] = Active LAB, donor O+, cycle day 7, Gram stain score 4
[12] = Active LAB, donor O+, cycle day 15, Gram stain score 2
[13] = Active LAB, donor O+, cycle day 20, Gram stain score 6
[14] = Active LAB, frozen VECs, 10 donors
[15] = Inactive LAB, Agar, donor A+, cycle day 3, Gram stain score 4
[16] = Inactive LAB, Agar, donor A+, cycle day 37, Gram stain score 8
[17] = Inactive LAB, Agar, donor AB+, cycle day 24, Gram stain score 4
[18] = Inactive LAB, Agar, donor B+, cycle day 13, Gram stain score 9
[19] = Inactive LAB, Agar, donor O+, cycle day 7, Gram stain score 2
[20] = Inactive LAB, Agar, donor O+, cycle day 15, Gram stain score 2
[21] = Inactive LAB, Agar, donor O+, cycle day 20, Gram stain score 6
[22] = Inactive LAB, Agar, frozen VECs
[23] = Inactive LAB, Broth, donor A+, cycle day 3, Gram stain score 4
[24] = Inactive LAB, Broth, donor A+, cycle day 17, Gram stain score 9
[25] = Inactive LAB, Broth, donor A+, cycle day 37, Gram stain score 8
[26] = Inactive LAB, Broth, donor AB+, cycle day 24, Gram stain score 4
[27] = Inactive LAB, Broth, donor A−, cycle day 8 mos., Gram stain score 4
[28] = Inactive LAB, Broth, donor B+, cycle day 13, Gram stain score 9
[29] = Inactive LAB, Broth, donor O+, cycle day 7, Gram stain score 2
[30] = Inactive LAB, Broth, donor O+, cycle day 7, Gram stain score 4
[31] = Inactive LAB, Broth, donor O+, cycle day 15, Gram stain score 2
[32] = Inactive LAB, Broth, donor O+, cycle day 20, Gram stain score 6
[33] = Inactive LAB, Broth, frozen VECs, 10 donors
[34] = Lactobacillus grown anaerobically for 24, 48 or 72 hours
[35] = Lactobacillus grown under ambient atmosphere, with or without CNNaS

For Lactobacillus crispatus CTV-05, the “% VEC ADH” value [1, 4] was 94%, the “X ± 1 STD (logarithmic mean adherence of LAB per 50 VEC)” value [1, 4] was 17.7 ± 3.2 and the “% VEC ADH” value [1, 5] was 66%. The “X ± 1 STD (logarithmic mean adherence of LAB per 50 VEC)” value [1, 5] was 13.0 ± 5.0, the “% VEC ADH” value [1, 6] was 94% and the “Range (adhered LAB per VEC)” value [1, 6] was 0-133 LAB per VEC. The “X ± 1 STD (logarithmic mean adherence of LAB per 50 VEC)” value [1, 6] was 8.5 ± 3.3, the “% VEC ADH” value [1, 7] was 70% and the “Range (adhered LAB per VEC)” value [1, 7] was 0-109 LAB per VEC. For the same substance, the “X ± 1 STD (logarithmic mean adherence of LAB per 50 VEC)” value [1, 7] was 5.1 ± 3.4, the “% VEC ADH” value [1, 8] was 96% and the “X ± 1 STD (logarithmic mean adherence of LAB per 50 VEC)” value [1, 8] was 52.1 ± 3.6. The “% VEC ADH” value [1, 9] was 68%, the “Range (adhered LAB per VEC)” value [1, 9] was 0-61 LAB per VEC and the “X ± 1 STD (logarithmic mean adherence of LAB per 50 VEC)” value [1, 9] was 5.7 ± 3.3. The “% VEC ADH” value [1, 10] was 94%, the “X ± 1 STD (logarithmic mean adherence of LAB per 50 VEC)” value [1, 10] was 51.9 ± 3.0 and the “% VEC ADH” value [1, 11] was 92%. The “X ± 1 STD (logarithmic mean adherence of LAB per 50 VEC)” value [1, 11] was 36.3 ± 2.7, the “% VEC ADH” value [1, 12] was 96% and the “Range (adhered LAB per VEC)” value [1, 12] was 0-216 LAB per VEC. For the same substance, the “X ± 1 STD (logarithmic mean adherence of LAB per 50 VEC)” value [1, 12] was 16.4 ± 4.0, the “% VEC ADH” value [1, 13] was 100% and the “Range (adhered LAB per VEC)” value [1, 13] was 1-122 LAB per VEC. For the same substance, the “X ± 1 STD (logarithmic mean adherence of LAB per 50 VEC)” value [1, 13] was 14.1 ± 2.3, the “Overall Averages # LAB/VEC” value [1, 14] was 22.1 LAB/VEC and the “Overall Averages % Adherence” value [1, 14] was 77.6%. The “Range (adhered LAB per VEC)” value [1, 15] was 14-200 LAB per VEC, the “X ± 1 STD (logarithmic mean adherence of LAB per 50 VEC)” value [1, 15] was 96.1 ± 2.3 and the “% VEC ADH” value [1, 16] was 100%. The “X ± 1 STD (logarithmic mean adherence of LAB per 50 VEC)” value [1, 16] was 58.9 ± 2.1, the “% VEC ADH” value [1, 17] was 100% and the “X ± 1 STD (logarithmic mean adherence of LAB per 50 VEC)” value [1, 17] was 47.3 ± 2.5. For the same substance, the “% VEC ADH” value [1, 18] was 100%, the “X ± 1 STD (logarithmic mean adherence of LAB per 50 VEC)” value [1, 18] was 19.4 ± 3.9 and the “% VEC ADH” value [1, 19] was 100%. The “X ± 1 STD (logarithmic mean adherence of LAB per 50 VEC)” value [1, 19] was 21.4 ± 2.5, the “% VEC ADH” value [1, 20] was 38% and the “Range (adhered LAB per VEC)” value [1, 20] was 0-11 LAB per VEC. For the same substance, the “X ± 1 STD (logarithmic mean adherence of LAB per 50 VEC)” value [1, 20] was 1.9 ± 2.1, the “% VEC ADH” value [1, 21] was 200% and the “X ± 1 STD (logarithmic mean adherence of LAB per 50 VEC)” value [1, 21] was 60.9 ± 2.1. The “Overall Averages # LAB/VEC” value [1, 22] was 43.7 LAB/VEC, the “Overall Averages % Adherence” value [1, 22] was 91.1% and the “% VEC ADH” value [1, 23] was 46%. For the same substance, the “X ± 1 STD (logarithmic mean adherence of LAB per 50 VEC)” value [1, 23] was 6.4 ± 3.9, the “% VEC ADH” value [1, 24] was 38% and the “X ± 1 STD (logarithmic mean adherence of LAB per 50 VEC)” value [1, 24] was 3.1 ± 3.2. For the same substance, the “% VEC ADH” value [1, 25] was 98%, the “X ± 1 STD (logarithmic mean adherence of LAB per 50 VEC)” value [1, 25] was 10.9 ± 3.6 and the “% VEC ADH” value [1, 26] was 72%. For the same substance, the “Range (adhered LAB per VEC)” value [1, 26] was 0-178 LAB per VEC, the “X ± 1 STD (logarithmic mean adherence of LAB per 50 VEC)” value [1, 26] was 7.1 ± 3.5 and the “% VEC ADH” value [1, 27] was 99%. The “Range (adhered LAB per VEC)” value [1, 27] was 0-56 LAB per VEC, the “X ± 1 STD (logarithmic mean adherence of LAB per 50 VEC)” value [1, 27] was 6.5 ± 3.0 and the “% VEC ADH” value [1, 28] was 60%. The “X ± 1 STD (logarithmic mean adherence of LAB per 50 VEC)” value [1, 28] was 7.3 ± 4.7, the “% VEC ADH” value [1, 29] was 100% and the “Range (adhered LAB per VEC)” value [1, 29] was 1-96 LAB per VEC. The “X ± 1 STD (logarithmic mean adherence of LAB per 50 VEC)” value [1, 29] was 5.7 ± 2.8, the “% VEC ADH” value [1, 30] was 92% and the “Range (adhered LAB per VEC)” value [1, 30] was 0-96 LAB per VEC. The “X ± 1 STD (logarithmic mean adherence of LAB per 50 VEC)” value [1, 30] was 7.8 ± 3.1, the “% VEC ADH” value [1, 31] was 80% and the “X ± 1 STD (logarithmic mean adherence of LAB per 50 VEC)” value [1, 31] was 6.9 ± 3.3. The “% VEC ADH” value [1, 32] was 100%, the “Range (adhered LAB per VEC)” value [1, 32] was 1-66 LAB per VEC and the “X ± 1 STD (logarithmic mean adherence of LAB per 50 VEC)” value [1, 32] was 15.9 ± 3.1. For the same substance, the “Overall Averages # LAB/VEC” value [1, 33] was 7.76 LAB/VEC, the “Overall Averages % Adherence” value [1, 33] was 78.4% and the average adherence value ([1]; cells stored at refrigerated temperatures) was 24.3 cells/VEC. The “adherence of inactive (preserved state) cells compared with metabolically active cells” value ([1]; frozen VECs, McIlvaines Buffer pH 4.5) was “equally well or better”, the average adherence value ([1]; room temperature stored cells) was 21.9 cells/VEC and the “percent VEC cohesion value, average” value ([1]; stored at refrigerated temperature) was 97.75%. For the same substance, the “percent VEC cohesion value, average” value ([1]; stored at room temperature) was 97%, the “inhibition of Candida growth” value [2, 34] was “effectively inhibited growth” and the “inhibition of Candida growth” value [2, 35] was “unable to inhibit”. The “inhibition of Candida growth” value [3, 34] was “effectively inhibited growth”, the “inhibition of Candida growth” value [3, 35] was “unable to inhibit” and the “Zone of Inhibition (in millimeters)” value ([3]; Organism Growth Time Period 48 hours) was 70 to 0 mm. For the same substance, the “Zone of Inhibition (in millimeters)” value ([3]; Organism Growth Time Period 72 hours) was 70 to 0 mm.
